Test results reported in ChEMBL document CHEMBL1681734, “hNK2 receptor antagonists. The use of intramolecular hydrogen bonding to increase solubility and membrane permeability” (Bioorg Med Chem Lett, 2011).
Converted amounts (≈) assume the structure as drawn.

Experiments:
[1] = Aqueous solubility of the compound at pH 6.4; format: physicochemical
[2] = Membrane permeability by PAMPA assay; format: ADME; conditions: read-out: permeability
[3] = Permeability across apical to basolateral side in human Caco2 cells at 100 uM; format: ADME, cell-based; conditions: Caco-2, read-out: permeability
Substance-K receptor = target: T1, Substance-K receptor (Homo sapiens, UniProt P21452); test: Displacement of [125I]neurokinin A from human NK2 receptor after 30 mins
T1 sequence (P21452 whole entry): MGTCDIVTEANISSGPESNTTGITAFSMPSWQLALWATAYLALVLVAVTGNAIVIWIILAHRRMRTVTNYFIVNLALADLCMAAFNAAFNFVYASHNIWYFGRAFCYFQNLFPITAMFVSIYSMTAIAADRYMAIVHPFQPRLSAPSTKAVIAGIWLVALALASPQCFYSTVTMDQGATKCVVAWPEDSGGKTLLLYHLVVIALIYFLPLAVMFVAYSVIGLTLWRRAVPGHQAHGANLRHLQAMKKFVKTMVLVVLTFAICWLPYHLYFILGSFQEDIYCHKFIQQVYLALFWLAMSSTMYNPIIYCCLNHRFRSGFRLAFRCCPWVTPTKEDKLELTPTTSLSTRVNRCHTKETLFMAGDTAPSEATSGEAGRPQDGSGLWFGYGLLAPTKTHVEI

SMILES	solubility [1]	Papp [2]	Papp A→B at 100 µM [3]	Ki (Substance-K receptor)
O=C(NC1(C(=O)N[C@@H](Cc2ccccc2)C(=O)NCC2CCN(CC3CCOCC3)CC2)CCCC1)c1ccc(-n2cccc2)cc1Cl	> 2820 µg/mL	0.16 ×10⁻⁶ cm/s	4.21 ×10⁻⁶ cm/s	3.98 nM
CCCCc1ccc(C(=O)NC2(C(=O)N[C@@H](Cc3ccccc3)C(=O)NCC3CCN(CC4CCOCC4)CC3)CCCC2)cc1	> 2410 µg/mL			
COc1c(C(=O)NC2(C(=O)N[C@H](CCCN3CCN(CC4CCOCC4)CC3)Cc3ccccc3)CCCC2)ccc2ccccc12	1910 µg/mL (≈ 2.98 mM)	6.77 ×10⁻⁶ cm/s	11.7 ×10⁻⁶ cm/s	44.7 nM
COc1cc2ccccc2cc1C(=O)NC1(C(=O)N[C@H](CCCN2CCN(CC3CCOCC3)CC2)Cc2ccccc2)CCCC1	3070 µg/mL (≈ 4.79 mM)	11.9 ×10⁻⁶ cm/s	13.6 ×10⁻⁶ cm/s	8.32 nM
CCCCc1ccc(C(=O)NC2(C(=O)N[C@@H](Cc3ccccc3)C(=O)NCC3CCN(CC4CCOCC4)CC3)CCCC2)nc1	> 6600 µg/mL			

Further molecules by falling Ki (Substance-K receptor), results first:

solubility [1]	Papp [2]	Papp A→B at 100 µM [3]	Ki (Substance-K receptor)	SMILES
> 2860 µg/mL	0.66 ×10⁻⁶ cm/s	13.8 ×10⁻⁶ cm/s	3.24 nM	O=C(NC1(C(=O)N[C@@H](Cc2ccccc2)C(=O)NCC2CCN(CC3CCOCC3)CC2)CCCC1)c1ccc(-n2cccc2)cc1F
2800 µg/mL (≈ 4.58 mM)	15.5 ×10⁻⁶ cm/s	25.2 ×10⁻⁶ cm/s	2.04 nM	O=C(NC1(C(=O)N[C@H](CCCN2CCN(CC3CCOCC3)CC2)Cc2ccccc2)CCCC1)c1cc2ccccc2cn1
1570 µg/mL (≈ 2.57 mM)	5.96 ×10⁻⁶ cm/s	14.7 ×10⁻⁶ cm/s	0.324 nM	O=C(NC1(C(=O)N[C@H](CCCN2CCN(CC3CCOCC3)CC2)Cc2ccccc2)CCCC1)c1ccc2ccccc2c1
1450 µg/mL (≈ 2.27 mM)		< 1 ×10⁻⁶ cm/s	0.234 nM	O=C(NC1(C(=O)N[C@@H](Cc2ccccc2)C(=O)NCC2CCN(CC3CCOCC3)CC2)CCCC1)c1ccc(-n2cccc2)cc1
